According to PubChem BioAssay (NCI):
Values joined by “and” are separate entries in the source; they are usually repeats but may differ in a detail not shown here. Equal values may be shown once.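 Results reflect a 48-hour exposure of cells in 96-well plates to compound at five concentrations. GI50 = concentration required for 50% inhibition of growth. TGI denotes the concentration required for complete inhibition of growth.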

test system: MDA-MB-468 breast; experiment: NCI tumour cell line growth inhibition, 48 h

| Structure (SMILES) | GI50 | TGI |
| --- | --- | --- |
| N#C/C=C(\c1ccc([N+](=O)[O-])cc1)n1nnc2cc(Cl)c(Cl)cc21 | 1370 nM | 3330 nM |
| CC(C)=CCc1cc(O)cc2c1OC(C=C(C)C)C1=C2C(=O)C2=C(NCCS2(=O)=O)C1=O (stereo not drawn) | 2540 nM | 7890 nM |
| Cn1cnc([N+](=O)[O-])c1S(=O)(=O)Oc1ccccc1 | 1950 nM | 4680 nM |
| C=CC(=O)N1CCC(C2CCNc3c(C(N)=O)c(-c4ccc(Oc5ccccc5)cc4)nn32)CC1 (stereo not drawn) | 752 nM | 8520 nM |
| Nc1nccc2c1ccn2-c1ccc(NC(=O)c2ccc(N3CCOCC3)c(C(F)(F)F)c2)cc1 | 2160 nM | 16500 nM |
| COc1ccncc1C#Cc1cncc(C(=O)Nc2ccc(CN3CCN(C)CC3)c(C(F)(F)F)c2)c1 | 24700 nM | > 100000 nM |
| O=C1c2c(c3c4cc(Br)ccc4[nH]c3c3ccc4ccccc4c23)C(=O)N1CCN1CCCCC1 | 1620 nM | 3520 nM |
| COc1cc(CNCCCN2C(=O)c3ccc4c5c(ccc(c35)C2=O)C(=O)N(CCCNCc2cc(OC)c(OC)c(OC)c2)C4=O)cc(OC)c1OC | 153 nM | 406 nM |
| COc1cc(C2c3cc4c(cc3C(O)C(CO)C2CO)OCO4)cc(OC)c1OC (stereo not drawn) | 270 nM | – |
| O=c1cc2oc3cc(O)c(O)cc3c(-c3ccccc3O)c-2cc1O | 12600 nM | 42600 nM |
| CS(=O)(=O)CCCn1c(=O)c(Oc2ccc(F)cc2F)cc2cnc(NC3CCOCC3)nc21 | > 25000 nM | > 25000 nM |
| CC(=O)c1cc2c(o1)C(=O)c1ccccc1C2=O | 912 nM and 1260 nM | 2540 nM and 2800 nM |
| CC1(C)OCCn2c1nc1c(N3CCOCC3)nc(-c3cnc(N)nc3)nc12 | 339 nM | 2600 nM |
| COc1cc(-c2nn(-c3cccc(NC(=O)Nc4ccc(Cl)c(Cl)c4)c3)cc2-c2ccncc2)ccc1Cl | 567 nM | 2270 nM |
| Cc1csc(Nc2nc(-c3cccc(Br)c3)nc(C(Cl)(Cl)Cl)n2)n1 | 354 nM | 1550 nM |
| CCOC(=O)C(=Cc1cccc(Cl)c1)C(=O)OCC | 1810 nM | 3850 nM |
| CCCCCCNC(=O)c1nc(-c2ccccc2)oc1Cc1ccc(OP(=O)(O)O)cc1 | 14300 nM | 28200 nM |
| COc1ccc2[nH]cc(-c3nc(-c4c[nH]c5ncccc45)cs3)c2c1 | 2690 nM | > 100000 nM |
| O=c1[nH]c(=O)n(C2CC(O)C(CO)O2)cc1CO (stereo not drawn) | > 100000 nM | > 100000 nM |
| Cc1nc2cnc(N)c(C#Cc3cncc(C(=O)Nc4ccc(CN5CCN(C)CC5)c(C(F)(F)F)c4)c3)c2nc1C | 2250 nM | 15900 nM |
| C[C@H]1Oc2cc(cnc2N)-c2c(nn(C)c2C#N)CN(C)C(=O)c2ccc(F)cc21 | 30800 nM | > 100000 nM |
| N=c1ccn2c(n1)OC1C(O)C(CO)OC12 (stereo not drawn) | > 100000 nM | > 100000 nM |
| O=C(c1c(F)ccc(NS(=O)(=O)N2CC[C@@H](F)C2)c1F)c1c[nH]c2ncc(-c3cnc(C4CC4)nc3)cc12 | 3930 nM and 3670 nM | > 10000 nM and 27900 nM |
| COC12C=C/C(=C(/C(=O)OCc3ccncc3)C(=O)CCCCCCCCC3(OC)C=C/C(=C(/C(=O)OCc4ccncc4)C(=O)CCCCCCCC1)O3)O2 | 635 nM | 2000 nM |
| Nc1c(C(=O)Nc2cccc(Br)c2)sc2nc3c(cc12)C(=O)CCC3 | 259 nM | > 100000 nM |
| COc1cccc2c1C(=O)c1c(O)c3c(c(O)c1C2=O)CC(O)(/C(C)=N/NC(=O)CCC(=O)N/N=C(\C)C1(O)Cc2c(O)c4c(c(O)c2C(OC2CC(N)C(O)C(C)O2)C1)C(=O)c1c(OC)cccc1C4=O)CC3OC1CC(N)C(O)C(C)O1 (stereo not drawn) | 101 nM | 340 nM |
| O=C(c1ccc(F)c(F)c1Nc1ccc(I)cc1F)N1CC(O)([C@@H]2CCCCN2)C1 | 3750 nM and 1790 nM | 16200 nM and > 8970 nM |
| N#Cc1c(-c2ccc(F)cc2)c(-c2ccc(F)cc2)nn(CCO)c1=O | – | > 100000 nM |
| Cc1ccc(/C=C/c2c(C(=O)/C=C/c3ccc(C(F)(F)F)cc3)c(C)nc3ccccc23)cc1 | 1840 nM | 3530 nM |
| Cn1cc(C2=C(c3cn(C)c4cc(C(N)=O)ccc34)C(=O)NC2=O)c2ccccc21 | 1180 nM | 15900 nM |
